Test results: patent US20100068204A1, “4-ARYLOXYQUINOLIN-2(1H)-ONES AS MTOR KINASE AND PI3 KINASE INHIBITORS, FOR USE AS ANTI-CANCER AGENTS” (Wyeth, priority 2008, published 2010)
pIC50: −log10 of the molar value.

Legend:
human TOR (FLAG-TOR) = human TOR (FLAG-TOR) (Homo sapiens, UniProt P42345); assay: mTOR enzyme assay (DELFIA format, purified enzyme); format: biochemical; conditions: 800 ng/ml FLAG-TOR, 100 μM ATP, 1.25 μM His6-S6K; read-out: mTOR Kinase IC50
[1] = test system: LNCap prostate tumor cells; assay: In vitro cell growth assay (MTS), LNCap; format: cell-based, human; conditions: Homo sapiens, LNCaP, 72 h, three days after drug treatment
Summary of the method: (§1)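 Tumor cells plated ~3000/well; inhibitors in DMSO added one day later (final DMSO 0.25%). After three days of treatment, viable cell density read by MTS conversion, absorbance at 490 nm. Effect expressed relative to untreated control growth.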

[2] = test system: MDA468 breast tumor cells; assay: In vitro cell growth assay (MTS), MDA468; format: cell-based, human; conditions: Homo sapiens, 72 h, three days after drug treatment
Summary of the method: as §1

PI3Kα = PI3Kα (Homo sapiens, UniProt P42336); assay: PI3Kα fluorescence polarization assay; format: biochemical; conditions: 20 μM PIP2, 25 μM ATP
Sequence of PI3Kα (P42336 whole entry, species assumed): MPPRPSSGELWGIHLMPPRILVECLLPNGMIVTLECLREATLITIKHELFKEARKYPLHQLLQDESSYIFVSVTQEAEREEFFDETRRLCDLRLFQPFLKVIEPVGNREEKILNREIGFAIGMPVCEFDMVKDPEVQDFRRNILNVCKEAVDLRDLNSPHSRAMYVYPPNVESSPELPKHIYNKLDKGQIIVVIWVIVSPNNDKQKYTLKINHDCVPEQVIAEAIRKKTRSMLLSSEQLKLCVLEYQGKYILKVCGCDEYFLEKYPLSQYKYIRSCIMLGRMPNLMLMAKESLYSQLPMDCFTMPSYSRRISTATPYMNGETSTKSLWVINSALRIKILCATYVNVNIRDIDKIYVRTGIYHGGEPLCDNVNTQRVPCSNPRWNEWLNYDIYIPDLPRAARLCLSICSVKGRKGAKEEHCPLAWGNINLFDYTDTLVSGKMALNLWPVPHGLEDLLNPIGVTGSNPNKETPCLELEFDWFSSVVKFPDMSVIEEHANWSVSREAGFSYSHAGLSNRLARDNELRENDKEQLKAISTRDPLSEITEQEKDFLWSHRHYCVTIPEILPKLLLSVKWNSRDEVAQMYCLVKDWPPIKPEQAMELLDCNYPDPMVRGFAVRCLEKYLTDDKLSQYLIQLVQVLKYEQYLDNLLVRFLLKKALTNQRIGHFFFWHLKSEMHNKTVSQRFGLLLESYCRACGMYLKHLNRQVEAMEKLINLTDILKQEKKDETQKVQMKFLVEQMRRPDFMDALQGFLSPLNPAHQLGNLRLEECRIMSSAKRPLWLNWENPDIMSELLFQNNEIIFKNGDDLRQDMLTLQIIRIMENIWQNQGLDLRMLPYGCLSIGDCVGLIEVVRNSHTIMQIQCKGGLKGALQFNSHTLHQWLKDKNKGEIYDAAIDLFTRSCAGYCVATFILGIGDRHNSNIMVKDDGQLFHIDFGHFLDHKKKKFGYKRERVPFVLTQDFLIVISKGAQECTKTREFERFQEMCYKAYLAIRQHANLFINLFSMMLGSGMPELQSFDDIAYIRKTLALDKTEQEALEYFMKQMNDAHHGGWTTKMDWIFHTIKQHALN
Sequence of PI3Kα (P27986 whole entry partner, species assumed): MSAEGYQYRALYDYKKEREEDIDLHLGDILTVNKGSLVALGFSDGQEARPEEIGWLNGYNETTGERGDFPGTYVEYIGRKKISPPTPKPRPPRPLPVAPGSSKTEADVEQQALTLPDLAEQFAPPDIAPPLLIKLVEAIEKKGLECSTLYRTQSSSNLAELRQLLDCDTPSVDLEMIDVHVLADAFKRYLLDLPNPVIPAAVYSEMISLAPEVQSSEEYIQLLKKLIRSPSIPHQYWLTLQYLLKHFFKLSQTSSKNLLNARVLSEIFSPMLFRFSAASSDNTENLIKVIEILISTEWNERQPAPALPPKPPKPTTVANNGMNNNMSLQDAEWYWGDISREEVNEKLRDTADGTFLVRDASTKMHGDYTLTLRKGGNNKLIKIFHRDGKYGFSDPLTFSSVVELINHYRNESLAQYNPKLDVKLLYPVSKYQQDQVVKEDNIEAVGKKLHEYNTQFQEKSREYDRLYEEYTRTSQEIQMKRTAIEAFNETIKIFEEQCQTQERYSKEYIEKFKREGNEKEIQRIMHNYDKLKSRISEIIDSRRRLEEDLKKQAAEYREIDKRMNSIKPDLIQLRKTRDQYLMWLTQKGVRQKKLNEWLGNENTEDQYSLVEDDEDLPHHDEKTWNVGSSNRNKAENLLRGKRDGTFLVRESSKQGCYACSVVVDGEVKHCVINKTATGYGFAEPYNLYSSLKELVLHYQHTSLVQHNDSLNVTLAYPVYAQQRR
Summary of the method: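 Kinase reaction in 20 mM HEPES pH 7.5, 2 mM MgCl2, 0.05% CHAPS with final 20 μM diC8-PIP2 and 25 μM ATP, 30-60 min at room temperature. Stopped with 10 nM TAMRA-labelled probe plus 2.5 uM GST-murine GRP; fluorescence polarization read after 90-110 minutes.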

Compound	pIC50 (human TOR (FLAG-TOR))	pIC50 [1]	pIC50 [2]	pIC50 (PI3Kα)
O=c1cc(Oc2ccccc2)c2cc(N3CCOCC3)ccc2[nH]1	4.78	5.12	4.57	5.93
O=C(NCCO)Nc1ccc(-c2cccc(Oc3cc(=O)[nH]c4ccccc34)c2)cc1	6.60	4.22	< 4.22	5.07
CN(C)c1ccc(CNc2cccc(Oc3cc(=O)[nH]c4ccccc34)c2)cn1	6.80	< 4.22	< 4.22	5.34
O=c1cc(Oc2ccccc2)c2ccccc2[nH]1	6.43	5.05	4.22	4.62
Cc1ccccc1Oc1cc(=O)[nH]c2ccccc12	5.70	5.10	< 4.22	5.10
CCOc1ccc(Oc2cc(=O)[nH]c3ccccc23)cc1	< 4.70	< 4.22	< 4.22	< 5.00
O=c1cc(Oc2cccc(-c3ccc(NCc4ccncc4)cc3)c2)c2ccccc2[nH]1	6.15	< 4.22	< 4.22	5.28
O=c1cc(Oc2ccccc2)c2cc(Cl)ccc2[nH]1	5.17	4.89	< 4.22	5.29
O=c1cc(Oc2cccc(-c3ccc(NCCN4CCOCC4)nc3)c2)c2ccccc2[nH]1	6.82	5.33	5.70	5.17
O=c1cc(Oc2cccc(NCc3ccc(-c4cccnc4)cc3)c2)c2ccccc2[nH]1	7.05	5.48	5.10	5.10
COc1cnc(OC)c(CNc2cccc(Oc3cc(=O)[nH]c4ccccc34)c2)c1	6.29	5.05	4.82	5.71
CN(C)CCNC(=O)c1ccc(-c2cccc(Oc3cc(=O)[nH]c4ccccc34)c2)cc1	6.62	5.22	4.92	< 5.00
N#Cc1ccc(Oc2cc(=O)[nH]c3ccccc23)cc1	5.12	5.26	4.32	5.68
O=c1cc(Oc2cccc(-c3cn[nH]c3)c2)c2ccccc2[nH]1	6.52	5.10	5.54	5.41
CC(Nc1cccc(Oc2cc(=O)[nH]c3ccccc23)c1)c1ccncc1 (stereo not shown)	6.85	5.51	4.96	5.12
Cn1cc(-c2cccc(Oc3cc(=O)[nH]c4ccccc34)c2)cn1	6.74	< 4.22	4.22	< 5.00
O=c1cc(Oc2cccc3ccccc23)c2ccccc2[nH]1	6.64	< 4.22	< 4.22	< 5.00
O=c1cc(Oc2cccc(NCc3cccs3)c2)c2ccccc2[nH]1	7.10	5.27	< 4.22	< 5.00
CC(C)(C)OCNC(=O)c1cccc(-c2cccc(Oc3cc(=O)[nH]c4ccccc34)c2)c1	5.62	5.18	< 4.22	< 5.00
O=c1cc(Oc2cccc(NCc3ccccn3)c2)c2ccccc2[nH]1	6.82	5.24	4.92	5.46
O=c1cc(Oc2ccccc2)c2cc(-c3cn[nH]c3)ccc2[nH]1	4.72	< 4.22	< 4.22	6.43
Nc1ccc(-c2ccc(Oc3cc(=O)[nH]c4ccccc34)cc2)cc1	< 4.70	5.70	4.22	6.11
O=c1cc(Oc2ccc(-c3ccccc3)cc2)c2ccccc2[nH]1	< 4.70	< 4.22	< 4.22	6.03
O=c1cc(Oc2cccc(-c3ccc(Cl)nc3)c2)c2ccccc2[nH]1	< 4.70	< 4.22	< 4.22	< 5.00
O=c1cc(Oc2cccc(-c3ccc(NCc4cccnc4)cc3)c2)c2ccccc2[nH]1	5.89	< 4.22	< 4.22	5.15
COCCNC(=O)Nc1ccc(-c2cccc(Oc3cc(=O)[nH]c4ccccc34)c2)cc1	6.59	< 4.22	4.22	< 5.00
O=c1cc(Oc2cccc(NCC3CCN(Cc4ccccc4)CC3)c2)c2ccccc2[nH]1	6.74	5.52	5.39	5.02
O=C(Cc1cccs1)Nc1ccc2[nH]c(=O)cc(Oc3ccccc3)c2c1	4.84	4.66	4.46	6.42
